Experimental data published in PMC12477080, “Polychlorinated biphenyls (PCBs) interact with drug metabolism in vivo” (Archives of Toxicology, 2025).

Assay: Stability of substrates and metabolites in quality control samples (benchtop, autosampler, freeze-thaw)
Assay type: physicochemical
Details: for Autosampler stability (24 h) Av. Accuracy (%): 10° C for 24 hours in the autosampler; for 3x freeze-thaw Av. Accuracy (%): after three freeze-thaw cycles; for Benchtop stability (19 h) Ac. Accuracy (%): room temperature for 19 hours
Description: The method was validated for intra- and interday accuracy and precision, stability, and matrix effects. […] Validation details are provided in Supplementary Tables 5–7 and supplemental Fig. 3. Glucuronidase/sulfatase digests were used to isolate CYP-specific metabolic activities, reducing interference from polymorphic UDP-glucuronosyltransferase (UGT) and sulfotransferase isoforms.
Supplemental table 6: Stability of the substrates and metabolites. Quality control samples were left at room temperature for 19 hours (benchtop stability) and at 10° C for 24 hours in the autosampler (autosampler stability) or were measured after three freeze-thaw cycles. Stability samples were measured against a freshly prepared set of calibrators and quality control samples.

## CC(C)NC(=O)NS(=O)(=O)c1cnccc1Nc1cccc(CO)c1 [OH-torsemide]
QC conc. 1 ng/ml
  Autosampler stability (24 h) Av. Accuracy (%): 109,17%
  3x freeze-thaw Av. Accuracy (%): 105,26%
  Benchtop stability (19 h) Ac. Accuracy (%): 106,91%
QC conc. 2 ng/ml
  Autosampler stability (24 h) Av. Accuracy (%): 113,11%
  3x freeze-thaw Av. Accuracy (%): 105,85%
  Benchtop stability (19 h) Ac. Accuracy (%): 107,98%
QC conc. 6 ng/ml
  Autosampler stability (24 h) Av. Accuracy (%): 109,32%
  3x freeze-thaw Av. Accuracy (%): 107,78%
  Benchtop stability (19 h) Ac. Accuracy (%): 111,3%
QC conc. 240 ng/ml
  Autosampler stability (24 h) Av. Accuracy (%): 108,82%
  3x freeze-thaw Av. Accuracy (%): 104,11%
  Benchtop stability (19 h) Ac. Accuracy (%): 106,75%
QC conc. 600 ng/ml
  Autosampler stability (24 h) Av. Accuracy (%): 99,55%
  3x freeze-thaw Av. Accuracy (%): 96,28%
  Benchtop stability (19 h) Ac. Accuracy (%): 99,14%

## O=C1Nc2c(O)cc(Cl)cc2[C@@](C#CC2CC2)(C(F)(F)F)O1 [8-OH-efavirenz]
QC conc. 0,5 ng/ml
  Autosampler stability (24 h) Av. Accuracy (%): 86,73%
  3x freeze-thaw Av. Accuracy (%): 84,9%
  Benchtop stability (19 h) Ac. Accuracy (%): 74,06%
QC conc. 0,25 ng/ml
  Autosampler stability (24 h) Av. Accuracy (%): 86,81%
  3x freeze-thaw Av. Accuracy (%): 84,61%
  Benchtop stability (19 h) Ac. Accuracy (%): 69,5%
QC conc. 60 ng/ml
  Autosampler stability (24 h) Av. Accuracy (%): 86,15%
  3x freeze-thaw Av. Accuracy (%): 79,98%
  Benchtop stability (19 h) Ac. Accuracy (%): 77,52%
QC conc. 150 ng/ml
  Autosampler stability (24 h) Av. Accuracy (%): 78,85%
  3x freeze-thaw Av. Accuracy (%): 77,49%
  Benchtop stability (19 h) Ac. Accuracy (%): 74,14%
QC conc. 1,5 ng/ml
  Autosampler stability (24 h) Av. Accuracy (%): 88,49%
  3x freeze-thaw Av. Accuracy (%): 79,73%
  Benchtop stability (19 h) Ac. Accuracy (%): 76,61%

## Cc1cccc(Nc2ccncc2S(=O)(=O)NC(=O)NC(C)C)c1 [torsemide, reference compound]
QC conc. 1 ng/ml
  Autosampler stability (24 h) Av. Accuracy (%): 105,13%
  3x freeze-thaw Av. Accuracy (%): 102,74%
  Benchtop stability (19 h) Ac. Accuracy (%): 97,46%
QC conc. 2 ng/ml
  Autosampler stability (24 h) Av. Accuracy (%): 108,32%
  3x freeze-thaw Av. Accuracy (%): 105,85%
  Benchtop stability (19 h) Ac. Accuracy (%): 107,17%
QC conc. 6 ng/ml
  Autosampler stability (24 h) Av. Accuracy (%): 108,92%
  3x freeze-thaw Av. Accuracy (%): 106,12%
  Benchtop stability (19 h) Ac. Accuracy (%): 107,51%
QC conc. 240 ng/ml
  Autosampler stability (24 h) Av. Accuracy (%): 109,92%
  3x freeze-thaw Av. Accuracy (%): 103,96%
  Benchtop stability (19 h) Ac. Accuracy (%): 108,15%
QC conc. 600 ng/ml
  Autosampler stability (24 h) Av. Accuracy (%): 97,91%
  3x freeze-thaw Av. Accuracy (%): 96,67%
  Benchtop stability (19 h) Ac. Accuracy (%): 99,27%

## Cn1c(=O)[nH]c2ncn(C)c2c1=O [Paraxanthine]
QC conc. 10 ng/ml
  Autosampler stability (24 h) Av. Accuracy (%): 96,28%
  3x freeze-thaw Av. Accuracy (%): 96,57%
  Benchtop stability (19 h) Ac. Accuracy (%): 89,99%
QC conc. 30 ng/ml
  Autosampler stability (24 h) Av. Accuracy (%): 105,74%
  3x freeze-thaw Av. Accuracy (%): 103,75%
  Benchtop stability (19 h) Ac. Accuracy (%): 105,38%
QC conc. 1200 ng/ml
  Autosampler stability (24 h) Av. Accuracy (%): 105,06%
  3x freeze-thaw Av. Accuracy (%): 100,61%
  Benchtop stability (19 h) Ac. Accuracy (%): 103,5%
QC conc. 3000 ng/ml
  Autosampler stability (24 h) Av. Accuracy (%): 93,91%
  3x freeze-thaw Av. Accuracy (%): 92,32%
  Benchtop stability (19 h) Ac. Accuracy (%): 94,2%

## COc1ccc2nc([S+]([O-])Cc3ncc(CO)c(OC)c3C)[nH]c2c1 (stereo not drawn) [5-OH-omeprazole]
QC conc. 0,5 ng/ml
  Autosampler stability (24 h) Av. Accuracy (%): 112,52%
  3x freeze-thaw Av. Accuracy (%): 105,73%
  Benchtop stability (19 h) Ac. Accuracy (%): 95,94%
QC conc. 0,25 ng/ml
  Autosampler stability (24 h) Av. Accuracy (%): 90,94%
  3x freeze-thaw Av. Accuracy (%): 101,98%
  Benchtop stability (19 h) Ac. Accuracy (%): 99,1%
QC conc. 60 ng/ml
  Autosampler stability (24 h) Av. Accuracy (%): 104,61%
  3x freeze-thaw Av. Accuracy (%): 99,23%
  Benchtop stability (19 h) Ac. Accuracy (%): 99,68%
QC conc. 150 ng/ml
  Autosampler stability (24 h) Av. Accuracy (%): 97,73%
  3x freeze-thaw Av. Accuracy (%): 100,57%
  Benchtop stability (19 h) Ac. Accuracy (%): 92,79%
QC conc. 1,5 ng/ml
  Autosampler stability (24 h) Av. Accuracy (%): 102,58%
  3x freeze-thaw Av. Accuracy (%): 103,03%
  Benchtop stability (19 h) Ac. Accuracy (%): 98,98%
